Experimental data as given in article PMC7900799, “Synthesis, antibiotic structure–activity relationships, and cellulose dissolution studies of new room-temperature ionic liquids derived from lignin” (Biotechnology for Biofuels, 2021).
Where two headings read alike, the source gives them in different places.

Tests used:
E. coli strain 1A1 = assay: Broth dilution assay (antibiotic assay), growth at 600 nm after 24 h; format: cell-based
Procedure: (§1) To determine if the antibacterial activity of 5 was due to pH effects, an additional broth dilution assay was performed using sodium hydroxide as a positive control.
E. coli strain 1A1 [43] was obtained from the microbial strain repository at the Joint Bioenergy Institute at Lawrence Berkeley National Laboratory. A 10 mL culture in Luria Broth (LB) media was grown for 18 h at 37 °C with shaking at 200 rpm. The culture was then diluted into LB media to an absorbance of 0.05 at 600 nm, and added into the wells of a 96-well plate (first row = 190 µL, all other wells = 100 µL/well). Approximately 700 mg of IL was dissolved into 1 mL of methanol, and 10 µL of each IL solution was added to first row wells of the plate. A twofold serial dilution was performed down the plate by mixing and transferring 100 µL using a multi-channel pipette. To maintain isochoric conditions, 100 µL was discarded from bottommost wells. The plate was then incubated at 37 °C with shaking at 150 rpm. After 24 h incubation, E. coli growth was quantified at 600 nm using an Epoch Microplate Spectrophotometer (Gen5 software). […] All experiments were repeated 3–7 times and error bars in Fig. 5 represent standard deviation. Statistical F-test was performed to determine the appropriate t-test (i.e., equal or unequal variance) to analyze significant difference between IC50 data.

[1] = pH of LB media at the IC50 concentration; format: physicochemical; settings: at IC50 against E. coli
Procedure: as §1

Daphnia magna = assay: 48-h acute toxicity study on D. magna; format: in vivo; settings: for IC50: Daphnia magna, 48 h, read-out: IC50 against D. magna
Procedure: Procedures for cultivating and performing acute toxicity assays with D. magna generally followed the US EPA protocol. Daphnia magna was cultured from stocks supplied by Aquatic Bio Systems Inc. (Fort Collins, CO). The organisms were cultured in 900-mL jars filled with moderately hard water from the recipe: 0.473 g CaSO4, 0.959 g NaHCO3, 1.223 g MgSO4·7H2O, and 0.039 g KCl per 10 L of deionized water. 2 mL of algae (Selenastrum capriconutum) containing 3.0 × 10^7 cells/mL were fed to D. magna on both Tuesdays and Thursdays with water changes as well as feedings on Saturdays. All glass jars were placed in a Thermo Scientific Precision incubator (Fischer Scientific, Hampton, NH) at a holding temperature of 20 °C and on a 12 h:12 h light:dark cycle. This procedure was conducted approximately a month prior to the beginning of the project. To prepare D. magna for use in acute experiments, three hundred adult daphnids were separated into five 1-L beakers with 60 daphnids each. These daphnids were used a week later in the experiment. All daphnid cultures followed the same protocol for feeding and water changes as mentioned previously.
A 48-h acute toxicity study was carried out to examine the toxic effects of 11 and 12 on D. magna, Glass jars were filled with moderately hard water and spiked with the appropriate concentration of IL from stock solution to a total volume of 50 mL. For each IL, 5 different concentrations were studied. Control jars were set up with only 50 mL of moderately hard water. Four replicates were used for each concentration and each replicate had four daphnids. The daphnids were placed into glass jars for each concentration of ILs. All glass jars were placed in a Thermo Scientific Precision incubator (Fischer Scientific, Hampton, NH) at a holding temperature of 20 °C and on a 12 h:12 h light:dark cycle. Mortality in each jar was recorded every 24 h.

[2] = E. coli strain 1A1, LB media, 24 h, 37 °C, read-out: IC50 (concentration of IL required to decrease bacterial growth by 50%)
[3] = Escherichia coli, 1A1, 24 h, E. coli strain 1A1, LB media, 24 h, 37 °C, read-out: IC50 (concentration of IL required to decrease bacterial growth by 50%)

[Na+].[OH-] [NaOH, sodium hydroxide, reference compound]
IC50 (E. coli strain 1A1; [2]): 25.5 mM
pH of LB media at the IC50 concentration [1]: 9.4

CC[N+](C)(CC)Cc1ccc(OC)c(OC)c1 [Compound 9, N-(3,4-Dimethoxybenzyl)-N-ethyl-N-methylethanaminium acetate]
IC50 (E. coli strain 1A1; [3]): 19.6 ± 0.4 mM

COc1cc(C[N+](C)(C)C)cc(OC)c1OC [Compound 12]
fold more toxic to D. magna than vanillin-derived IL 11 (Daphnia magna; 48-h acute toxicity): 2.6 fold
IC50 (Daphnia magna): 0.123 ± 0.012 mM

CCCC[N+](CCCC)(CCCC)CCCC [Compound 3, tetrabutylammonium bromide, reference compound]
IC50 (E. coli strain 1A1; read-out: IC50 (concentration of IL required to decrease bacterial growth by 50%), E. coli strain 1A1, LB media, 24 h, 37 °C): 10 ± 1.3 mM

C[N+](C)(C)Cc1ccccc1 [Compound 5, benzyltrimethylammonium hydroxide, reference compound]
IC50 (E. coli strain 1A1; [2]): 10.4 ± 0.3 mM
pH of LB media at the IC50 concentration [1]: 8.5

C[N+](C)(C)Cc1ccccc1 [Compound 4, Benzyltrimethylammonium acetate]
IC50 (E. coli strain 1A1; [2]): 47.8 ± 0.6 mM

COc1ccc(C[N+](C)(C)C)cc1OC [Compound 11]
fold reduction of toxicity of the methanesulfonate compared with the acetate anion (8) (E. coli strain 1A1; E. coli, vanillin-derived N,N,N-trimethyl cation): 1.6 fold
IC50 (E. coli strain 1A1; Escherichia coli, 1A1, 24 h, read-out: IC50 (concentration of IL required to decrease bacterial growth by 50%)): 78.7 ± 2.5 mM
fold by which IC50 against D. magna is lower than IC50 against E. coli (Daphnia magna; 0.319 mM vs 78.7 mM): approximately 250 fold
IC50 (Daphnia magna): 0.319 ± 0.066 mM

COc1ccc(C[N+](C)(C)C)cc1 [Compound 6]
IC50 (E. coli strain 1A1; [3]): 11.6 ± 1.7 mM

CCCC[N+](CCCC)(CCCC)CCCC [Compound 2, Tetrabutylammonium acetate]
IC50 (E. coli strain 1A1; Escherichia coli, 1A1, 24 h, read-out: IC50 (concentration of IL required to decrease bacterial growth by 50%), E. coli strain 1A1, LB media, 24 h, 37 °C): 13.2 ± 2.9 mM

COc1ccc(C[N+](C)(C)C)cc1OC [Compound 8]
IC50 (E. coli strain 1A1; [3]): 48.2 ± 3.3 mM

CCC[N+](C)(CCC)Cc1ccc(OC)c(OC)c1 [Compound 10, N-(3,4-Dimethoxybenzyl)-N-methyl-N-propylpropan-1-ammonium acetate]
IC50 (E. coli strain 1A1; [3]): 17.7 ± 0.9 mM

COc1cc(C[N+](C)(C)C)cc(OC)c1OC [Compound 7]
IC50 (E. coli strain 1A1; [3]): 22.2 ± 0.8 mM
